Patent US20060229242A1, “Composition comprising a pulmonary surfactant and a pde2 inhibitor” (Altana Phazma AG, priority 2003, published 2006)

Test system: Male Wistar rats
Test: Rat lung lavage experiment: arterial blood oxygenation after repeated saline lung lavage
Format: in vivo
Settings: rat lung lavage model; intratracheal, 1.2 mL, 60 min after lavage; PODPO 100 nM alone, or VENTICUTE 12.5 mgPL/kg with PODPO 100 nM (p<0.05 to p<0.001 versus VENTICUTE alone); up to 150 min
Method: (§1) Male Wistar rats were prepared according to Example 5 and lungs were ravaged 5-9 times with NaCl 0.9% (=>PaO2˜50-100 mmHg). After 60 min NaCl 0.9% (open circles), VENTICUTE 12.5 mgPL/kg (filled squares, PL=Phospholipids), PODPO (9-(6-Phenyl-2-oxohex-3-yl)-2-(3,4-dimethoxybenzyl)-purin-6-one) 100 nM (stars), or VENTICUTE 12.5 mgPL/kg in combination with PODPO 100 nM (open squares) was administered intratracheally (administration volume 1.2 mL). Arterial blood oxygenation (PaO2) was determined every 30 min up to 150 min after drug administration (t=210 min). […] Data are shown as mean±SEM. * p<0.05, *** p<0.001 versus VENTICUTE 12.5 mgPL/kg.
as §1, with “rats (220-250 g)” for “rats”, “anaesthetized, catheterised” for “prepared according”, “withdraw arterial blood,” for “Example 5”, “and ventilated with pure oxygen (=>PaO2˜500-550 mmHg). 30 min later” for “and”, “lavaged” for “ravaged”

COc1ccc(Cc2nc3c(ncn3C(CCCc3ccccc3)C(C)=O)c(=O)[nH]2)cc1OC (stereo not shown) [PODPO, 9-(6-Phenyl-2-oxohex-3-yl)-2-(3,4-dimethoxybenzyl)-purin-6-one]
Influence on arterial blood oxygenation (PaO2), in words: no influence on oxygenation
